Data on four molecules can be found in ChEMBL document CHEMBL3879884, “Compounds and therapeutical use thereof” (2005).

The source made the active and inactive calls. The calls are words filed in the database; no cut-off is given here.

The target of assay [1] is T1, DNA topoisomerase II (Homo sapiens) (UniProt P11388+Q02880). In words: Inhibition of DNA topoisomerase-2 (unknown origin) assessed as decrease in relaxation of supercoiled pRYG DNA at 1 to 10 uM after 50 mins by agarose gel electrophoresis. Format: protein assay.
The next assay deals with Escherichia coli. In words: Binding affinity to Escherichia coli supercoiled pRYG DNA assessed as reduction of DNA topoisomerase-1-mediated relaxation of supercoiled DNA at 1 to 10 uM by agarose gel electrophoresis.
Assay [2] has as its target T1, DNA topoisomerase II (Homo sapiens). The assay can be described thus: Binding affinity to p170 form of human DNA topoisomerase-2 at 50 nM in presence of UV irradiation after 60 mins by agarose gel electrophoresis. The following applies: tested as the 3H-labelled form. Format: protein assay.
The nature of assay [3]: Cytotoxicity against human DLD cells assessed as inhibition of cell proliferation after 48 hrs by CellTiter-Glo assay. In kind it is functional.
Assay [4] deals with T1, DNA topoisomerase II (Homo sapiens). The assay can be described thus: Inhibition of DNA topoisomerase-2 (unknown origin) assessed as decrease in relaxation of supercoiled pRYG DNA at 12.5 to 100 uM after 50 mins by ethidium bromide staining-based agarose gel electrophoresis. Format: protein assay.

Turning to `CC[n+]1c(-c2ccccc2)c2cc(N)ccc2c2ccc(N)cc21`, the inhibition entry in assay [1] was “Active”. For the same molecule, the result in the assay with Escherichia coli was Active.
With `Cc1nc(N(C)c2ccc(N=[N+]=[N-])cc2)c2ccccc2n1`, in assay [2], the result was Active.
On to `COc1ccc(Nc2nc(Cl)nc3ccccc23)cc1`, for which, in assay [3], the GI50 (usually the concentration at which growth is held to half of that of the control) was more than 10 µM.
In the case of `COc1ccc(N(C)c2nc(Cl)nc3ccccc23)cc1`, in assay [4], the inhibition result is “Active”.
